Biological target: T1, Human Leukocyte Elastase (HLE) (Homo sapiens, UniProt P08246)
T1 sequence (P08246 30-267): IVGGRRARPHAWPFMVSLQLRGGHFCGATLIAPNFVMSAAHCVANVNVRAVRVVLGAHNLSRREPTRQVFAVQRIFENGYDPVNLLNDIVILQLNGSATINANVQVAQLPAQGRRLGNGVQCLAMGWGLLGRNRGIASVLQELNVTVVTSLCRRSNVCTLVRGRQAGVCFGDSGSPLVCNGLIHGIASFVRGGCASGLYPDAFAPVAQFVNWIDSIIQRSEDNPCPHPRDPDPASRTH
Experiment: Inhibition of Human Leukocyte Elastase (HLE); hydrolysis of Methoxy-succinyl-Alanyl-Alanyl-Prolyl-Valyl-nitroanilide
Assay type: biochemical
Conditions: for inhibition at 20 µM: 2.0 × 10^-5 Molar; for inhibition at 10 µM: 1.0 × 10^-5 Molar; for inhibition at 0.2 µM: 2.0 × 10^-7 Molar; for inhibition at 0.05 µM: 5.0 × 10^-8 Molar; for inhibition at 1 µM: 1.0 × 10^-6 Molar; for inhibition at 5 µM: 5.0 × 10^-6 Molar
Description: Inhibition of Human Leukocyte Elastase (HLE)
This test measures the rate of hydrolysis of Methoxy-succinyl-Alanyl-Alanyl-Prolyl-Valyl-nitroanilide by HLE in the presence and absence of the compound to be tested. The procedure used is as follows. The following stock solutions are prepared.
1. a saline solution of HLE prepared from a composition containing 10% HLE with the remainder being sodium acetate (300 micrograms per ml) wherein the concentration was adjusted to give a change in absorption of 0.12 od units per minute in the assay in the absence derivative,
2. a dimethylsulfoxide solution of the nitroanilide peptide (2m mole),
3. tris-HCl buffer (0.2M,pH 8.0) and
4. a dimethylsulfoxide solution of the derivative to be tested at 20 times the desired final concentration.
The test hydrolysis solution was then prepared by adding 850 microliters buffer, 50 microliters derivative solution, 50 microliters peptide solution to a 1 cm. semi-micro cuvette. The cuvette was capped, slightly shaken and placed in the light chamber of a recording colorimeter where the increase in absorption at 410 nm. due to liberated nitroaniline was measured. Using this procedure, the one minute change in absorption of the test sample containing derivative was compared to the change in absorption in the absence of derivative. A 20% or more decrease in the rate of absorption was interpreted as a positive inhibition.

| inhibition at 20 µM | inhibition at 10 µM | inhibition at 0.2 µM | inhibition at 0.05 µM | inhibition at 1 µM | inhibition at 5 µM | Compound |
| --- | --- | --- | --- | --- | --- | --- |
| 67% | 52% |  |  |  |  | CCCCCCCCCCCCCCCCOCc1cc(=O)c(OC(=O)CC(C)C)co1 [Example 19, 2-[(hexadecyloxy)methyl]-4-oxo-4H pyran-5-yl-3-methylbutansate] |
| 66% | 73% |  |  |  | 69% | CCCCCCCCCCCCCCCCCCOCc1cc(=O)c(OC(=O)C(C)(C)C)co1 [Example 20, 2-[(octadecyloxy)methyl] -4-oxo-4Hpyran-5-yl-2,2-dimethylpropanoate] |
| 23% |  |  |  |  |  | CCCCCCCCCCCCCCCCOc1coc(COC2CCCCO2)cc1=O (centres unmarked) [Example 21, 5-Hexadecyloxy-2-tetrahydropyrany/oxymethyl-4H pyran-4-one] |
| 65% | 62% |  |  |  | 36% | CCCCCCCCCCCCCCCCOc1coc(COC(=O)C(C)(C)C)cc1=O [Example 23, 5-Hexadecyloxy-4-oxo-4Hpyran-2-hydroxymethyl-2,2-dimethylpropanoate] |
| 86% | 83% |  |  |  | 84% | CCCCCCCCCCCCCCCCOc1coc(C(=O)O)cc1=O [Example 24, 5-Hexadecyloxy-2-carboxyl-4Hpyran-4-one] |

Further lines, the molecule ahead of its results:

| Compound | inhibition at 20 µM | inhibition at 10 µM | inhibition at 0.2 µM | inhibition at 0.05 µM | inhibition at 1 µM | inhibition at 5 µM |
| --- | --- | --- | --- | --- | --- | --- |
| CCCCCCCCCCCCCCCCCCOCc1cc(=O)c(OCc2ccccc2)co1 [Example 11, 2-[(octadecyloxy)methyl]-5-(phenylmethoxy)-4Hpyran-4-one] | 24% |  |  |  |  |  |
| CCCCCCCCCCCCCCOCc1cc(=O)c(O)co1 [Example 12, 5-hydroxy-2-[(tetradecyloxy)methyl]-4Hpyran-4-one] | 48% | 34% |  |  |  |  |
| CCCCCCCCCCCCCCCCOCc1cc(=O)c(O)co1 [Example 13, 5-hydroxy-2-[(hexadecyloxy)methyl]-4Hpyran-4-one] | 23% |  |  |  |  |  |
| CCCCCCCCCCCCCCCCCCOCc1cc(=O)c(O)co1 [Example 14, 5-hydroxy-2-[(octadecyloxy)methyl]-4Hpyran-4-one] | 50% | 46% |  |  |  |  |
| CCCCCCCCCCCCCCOCc1cc(=O)c(OC(=O)C(C)(C)C)co1 [Example 15, 4-oxo-2-[(tetradecyloxy)methyl]-4H pyran-5-yl-2,2-dimethylpropanoate] | 88% | 81% | 60% | 38% |  |  |
| CCCCCCCCCCCCCCCCOCc1cc(=O)c(OC(=O)C(C)(C)C)co1 [Example 16, 2-[(hexadecyloxy)methyl]-4-oxo-4H pyran-5-yl-2,2-dimethylpropanoate] | 89% | 87% | 52% | 27% | 69% |  |
| CCCCCCCCCCCCCCCCOCc1cc(=O)c(OC(=O)C(C)C)co1 [Example 17, 2-[(hexadecyloxy)methyl]-4-oxo-4H pyran-5-yl-2-methylpropanoate] |  |  | 81% | 61% | 88% |  |
| CCCCCCCCCCCCCCCCOCc1cc(=O)c(OC(=O)C(C)C(C)C)co1 (centres unmarked) [Example 18, 2-[(hexadecyloxy)methyl]-4-oxo-4H pyran-5-yl-2,3-dimethylbutanoate] | 59% | 48% |  |  |  |  |

Source: patent US4603144A, “Kojic acid ether-ester derivatives” (G. D. Searle & Co., priority 1984, dated 1986)
